Assay results published in publication PMC9065260 (Frontiers in Pharmacology, 2022).

How the values were obtained:
[1] = system: human esophageal epithelial cell SHEE; assay: MTT assay, toxicity against normal cells; assay type: cell-based; conditions: MTT, normal human esophageal epithelial cells, mean ± SD, read-out: IC50 SHEE
Protocol: Cells were seeded in 96-well plates with densities of 2,200–2,500 cells/well in 100 μL. One day after seeding, the concentration of the test compounds between 0 and 50 μM, 0.1% DMSO was added to cells as control. Approximately 2200-2500 transfected cells in 100 μL were incubated in quintuplicate in 96-well plates. After 48 h, MTT was added and incubated in the plate for 1–4 h in the incubator.

HCC827 cells = assay: MTT assay for cell proliferation and cytotoxicity; assay type: cell-based; conditions: Homo sapiens, 48 h, mean ± SD
Protocol: (§1) The compounds were dissolved in DMSO to make a 50 mM stock solution and were diluted to the concentration of working solutions with the complete growth medium before administration.
(§2) Cells were seeded in 96-well plates with densities of 2,200–2,500 cells/well in 100 μL. One day after seeding, the concentration of the test compounds between 0 and 50 μM, 0.1% DMSO was added to cells as control. […] After 48 h, MTT was added and incubated in the plate for 1–4 h in the incubator.

KYSE450 cells = assay: MTT assay for cell proliferation and cytotoxicity; assay type: cell-based; conditions: Homo sapiens, KYSE-450; MTT, 48 h, mean ± SD; read-out: IC50 KYSE450
Protocol: as §1, §2

KYSE410 cells = assay: MTT assay for cell proliferation and cytotoxicity; assay type: cell-based; conditions: Homo sapiens, KYSE-410; MTT, 48 h, mean ± SD; read-out: IC50 KYSE410
Protocol: as §1, §2

KYSE70 cells = assay: MTT assay for cell proliferation and cytotoxicity; assay type: cell-based; conditions: Homo sapiens, KYSE-70; MTT, 48 h, mean ± SD; read-out: IC50 KYSE70
Protocol: as §1, §2

H1650 cells = assay: MTT assay for cell proliferation and cytotoxicity; assay type: cell-based; conditions: Homo sapiens, NCI-H1650; MTT, 48 h, mean ± SD; read-out: IC50 H1650
Protocol: as §1, §2

Row | SMILES | melting point [°C] | IC50 [1] [µM] | IC50 (HCC827 cells) [µM] | IC50 (KYSE450 cells) [µM] | IC50 (KYSE410 cells) [µM] | IC50 (KYSE70 cells) [µM] | IC50 (H1650 cells) [µM]
1 | COCCOc1cc2ncnc(Nc3cccc(-c4cn(Cc5ccccc5Br)nn4)c3)c2cc1OCCOC [Compound 3c, [6,7-Bis-(2-Methoxy-Ethoxy)-Quinazolin-4-yl]-{3-[1-(2-Bromo-Benzyl)-1H-(1,2,3)Triazol-4-yl]-Phenyl}-Amine] | 94 to 97 | 22.4 ± 2.53 | > 50 | 5.47 ± 0.29 | > 50 | 5.35 ± 0.34 | 5.72 ± 0.33
2 | COCCOc1cc2ncnc(Nc3cccc(-c4cn(-c5cccc(OC)c5)nn4)c3)c2cc1OCCOC [Compound 3e, [6,7-Bis-(2-Methoxy-Ethoxy)-Quinazolin-4-yl]-{3-[1-(3-Methoxy-Phenyl)-1H-(1,2,3)Triazol-4-yl]-Phenyl}-Amine] |  | > 50 | > 50 | 6.25 ± 0.35 | > 50 | 12.6 ± 1.01 | 21.1 ± 1.74
3 | COCCOc1cc2ncnc(Nc3cccc(-c4cn(-c5ccccc5F)nn4)c3)c2cc1OCCOC [Compound 3f, [6,7-Bis-(2-Methoxy-Ethoxy)-Quinazolin-4-yl]-{3-[1-(2-Fluoro-Phenyl)-1H-(1,2,3)Triazol-4-yl]-Phenyl}-Amine] | 83 to 86 | 12.1 ± 1.33 | 17.8 ± 1.61 | 34.2 ± 3.01 | > 50 | > 50 | > 50
4 | COCCOc1cc2ncnc(Nc3cccc(-c4cn(-c5ccc(F)cc5)nn4)c3)c2cc1OCCOC [Compound 3g, [6,7-Bis-(2-Methoxy-Ethoxy)-Quinazolin-4-yl]-{3-[1-(4-Fluoro-Phenyl)-1H-(1,2,3)Triazol-4-yl]-Phenyl}-Amine] | 88 to 91 | 8.01 ± 0.83 | > 50 | 44.5 ± 4.23 | > 50 | 5.46 ± 0.23 | 29.6 ± 2.18
5 | COCCOc1cc2ncnc(Nc3cccc(-c4cn(-c5ccccc5OC)nn4)c3)c2cc1OCCOC [Compound 3k, [6,7-Bis-(2-Methoxy-Ethoxy)-Quinazolin-4-yl]-{3-[1-(2-Methoxy-Phenyl)-1H-[1,2,3]Triazol-4-yl]-Phenyl}-Amine] | 87 to 90 | 10.3 ± 0.96 | 6.18 ± 0.61 | 20 ± 2.25 | 32 ± 3.25 | 16 ± 1.53 | 16 ± 1.69
6 | COCCOc1cc2ncnc(Nc3cccc(-c4cn(-c5cccc([N+](=O)[O-])c5)nn4)c3)c2cc1OCCOC [Compound 3m, [6,7-Bis-(2-Methoxy-Ethoxy)-Quinazolin-4-yl]-{3-[1-(3-Nitro-Phenyl)-1H-(1,2,3)Triazol-4-yl]-Phenyl}-Amine] | 98 to 101 | > 50 | 8.44 ± 0.37 | 4.05 ± 0.21 | 5.85 ± 0.2 | 3.92 ± 0.15 | 4.27 ± 0.19
7 | COCCOc1cc2ncnc(Nc3cccc(-c4cn(-c5ccccc5)nn4)c3)c2cc1OCCOC [Compound 3o, [6,7-Bis-(2-Methoxy-Ethoxy)-Quinazolin-4-yl]-[3-(1-Phenyl-1H-(1,2,3)Triazol-4-yl)-Phenyl]-Amine] |  | 14.2 ± 1.61 | > 50 | 46.8 ± 4.63 | 49.5 ± 5.01 | > 50 | > 50
8 | COCCOc1cc2ncnc(Nc3cccc(-c4cn(CCc5ccccc5)nn4)c3)c2cc1OCCOC [Compound 3s, [6,7-Bis-(2-Methoxy-Ethoxy)-Quinazolin-4-yl]-{3-[1-Phenethyl-1H-(1,2,3)Triazol-4-yl]-Phenyl}-Amine] | 109 to 112 | 33.3 ± 3.43 | > 50 | > 50 | > 50 | > 50 | > 50

Now from value to compound, other results behind:

Row | melting point [°C] | SMILES | IC50 [1] [µM] | IC50 (HCC827 cells) [µM] | IC50 (KYSE450 cells) [µM] | IC50 (KYSE410 cells) [µM] | IC50 (KYSE70 cells) [µM] | IC50 (H1650 cells) [µM]
9 | 89 to 92 | COCCOc1cc2ncnc(Nc3cccc(-c4cn(Cc5ccccc5)nn4)c3)c2cc1OCCOC [Compound 3a, {3-[1-Benzyl-1H-(1,2,3)Triazol-4-yl]-Phenyl}-[6,7-Bis-(2-Methoxy-Ethoxy)-Quinazolin-4-yl]-Amine] | > 50 | > 50 | 5.27 ± 0.31 | 9.7 ± 0.75 | 5.85 ± 0.28 | 34 ± 2.77
10 | 93 to 96 | COCCOc1cc2ncnc(Nc3cccc(-c4cn(Cc5ccccc5I)nn4)c3)c2cc1OCCOC [Compound 3b, [6,7-Bis-(2-Methoxy-Ethoxy)-Quinazolin-4-yl]-{3-[1-(2-Iodo-Benzyl)-1H-(1,2,3)Triazol-4-yl]-Phenyl}-Amine] | 8.05 ± 0.71 | > 50 | 20.6 ± 1.87 | 17.6 ± 1.37 | 9.03 ± 0.82 | > 50
11 | 131 to 134 | COCCOc1cc2ncnc(Nc3cccc(-c4cn(-c5ccccc5Cl)nn4)c3)c2cc1OCCOC [Compound 3h, [6,7-Bis-(2-Methoxy-Ethoxy)-Quinazolin-4-yl]-{3-[1-(2-Chloro-Phenyl)-1H-(1,2,3)Triazol-4-yl]-Phenyl}-Amine] | 6.03 ± 0.57 | > 50 | > 50 | > 50 | > 50 | > 50
12 | 93 to 97 | COCCOc1cc2ncnc(Nc3cccc(-c4cn(-c5ccccc5Br)nn4)c3)c2cc1OCCOC [Compound 3i, [6,7-Bis-(2-Methoxy-Ethoxy)-Quinazolin-4-yl]-{3-[1-(2-Bromo-Phenyl)-1H-(1,2,3)Triazol-4-yl]-Phenyl}-Amine] | 6.23 ± 0.62 | 24.2 ± 2.34 | > 50 | > 50 | 36.1 ± 3.17 | > 50
13 | 105 to 108 | COCCOc1cc2ncnc(Nc3cccc(-c4cn(-c5ccc(Br)cc5)nn4)c3)c2cc1OCCOC [Compound 3j, [6,7-Bis-(2-Methoxy-Ethoxy)-Quinazolin-4-yl]-{3-[1-(4-Bromo-Phenyl)-1H-(1,2,3)Triazol-4-yl]-Phenyl}-Amine] | 7.2 ± 0.63 | 6.27 ± 0.42 | 3.6 ± 0.27 | > 50 | 3.72 ± 0.33 | 4.98 ± 0.17
14 | 95 to 98 | COCCOc1cc2ncnc(Nc3cccc(-c4cn(-c5ccc(C)cc5)nn4)c3)c2cc1OCCOC [Compound 3l, [6,7-Bis-(2-Methoxy-Ethoxy)-Quinazolin-4-yl]-[3-(1-p-Tolyl-1H-(1,2,3)Triazol-4-yl)-Phenyl]-Amine] | 4.82 ± 0.32 | 4.61 ± 0.28 | > 50 | > 50 | 11.1 ± 0.94 | 10 ± 0.79
15 | 110 to 114 | CCOc1cccc(-n2cc(-c3cccc(Nc4ncnc5cc(OCCOC)c(OCCOC)cc45)c3)nn2)c1 [Compound 3n, [6,7-Bis-(2-Methoxy-Ethoxy)-Quinazolin-4-yl]-{3-[1-(3-Ethoxy-Phenyl)-1H-(1,2,3)Triazol-4-yl]-Phenyl}-Amine] | 22.6 ± 2.31 | 13.7 ± 1.34 | 12.8 ± 1.25 | 49.7 ± 4.57 | > 50 | 35.4 ± 3.46
16 | 113 to 116 | COCCOc1cc2ncnc(Nc3cccc(-c4cn(-c5ccccc5C(F)(F)F)nn4)c3)c2cc1OCCOC [Compound 3p, [6,7-Bis-(2-Methoxy-Ethoxy)-Quinazolin-4-yl]-{3-[1-(2-Trifluoromethyl-Phenyl)-1H-(1,2,3)Triazol-4-yl]-Phenyl}-Amine] | > 50 | 34.7 | 24.9 ± 2.16 | > 50 | > 50 | > 50
17 | 85 to 88 | COCCOc1cc2ncnc(Nc3cccc(-c4cn(-c5ccc(OC)cc5OC)nn4)c3)c2cc1OCCOC [Compound 3q, [6,7-Bis-(2-Methoxy-Ethoxy)-Quinazolin-4-yl]-{3-[1-(2,4-Dimethoxy-Phenyl)-1H-(1,2,3)Triazol-4-yl]-Phenyl}-Amine] | 28.1 ± 2.47 | > 50 | > 50 | 12.3 ± 0.93 | > 50 | > 50
18 | 100 to 103 | COCCOc1cc2ncnc(Nc3cccc(-c4cn(-c5ccc(C)cc5O)nn4)c3)c2cc1OCCOC [Compound 3r, 2-(4-{3-[6,7-Bis-(2-Methoxy-Ethoxy)-Quinazolin-4-Ylamino]-Phenyl}-(1,2,3)Triazol-1-yl)-5-Methyl-Phenol] | > 50 | 12.4 ± 1.07 | 8.2 ± 0.67 | 8.74 ± 0.74 | 5.85 ± 0.52 | 4.32 ± 0.27
